Test results taken from paper PMC10947015, “Constraining and Modifying Peptides Using Pd‐Mediated Cysteine Allylation” (Chembiochem, 2023).
Where two headings read alike, the source gives them in different places. Starred links: 1 amine or outer side, 2 acyl side, 3 side chain; linkers in the order of their positions; H or OH if unused. Positions of bridges follow the written chain, without caps; N, C: chain ends. Non-standard residues stand in square brackets, D forms with d. Residues, ends and D or L forms follow the SMILES beside them. Groups on a side chain read outwards from the residue. *: point of attachment. X1 = O=C(CCCC[C@@H]1SC[C@@H]2NC(=O)N[C@@H]21)NCCCOCCOCCOCCCN*; Tyr(3-NO2) = N[C@@H](Cc1ccc(O)c([N+](=O)[O-])c1)C(=O)O; Glutaryl = O=C(CCCC(=O)[*:2])[*:1]; Hyp = O=C(O)[C@@H]1C[C@@H](O)CN1; X2 = C(=C/C[*:2])/C[*:1]; X3 = C(#CC[*:2])C[*:1]

Biological target: T1, integrin α3β1 (Homo sapiens, UniProt P05556+P26006)
T1 construct: integrin α3β1 expressed on human MDA‐MB231 cells; endogenous in cells; host or cells: MDA-MB231 (human)
T1 sequence (P26006 33-872 limits assumed): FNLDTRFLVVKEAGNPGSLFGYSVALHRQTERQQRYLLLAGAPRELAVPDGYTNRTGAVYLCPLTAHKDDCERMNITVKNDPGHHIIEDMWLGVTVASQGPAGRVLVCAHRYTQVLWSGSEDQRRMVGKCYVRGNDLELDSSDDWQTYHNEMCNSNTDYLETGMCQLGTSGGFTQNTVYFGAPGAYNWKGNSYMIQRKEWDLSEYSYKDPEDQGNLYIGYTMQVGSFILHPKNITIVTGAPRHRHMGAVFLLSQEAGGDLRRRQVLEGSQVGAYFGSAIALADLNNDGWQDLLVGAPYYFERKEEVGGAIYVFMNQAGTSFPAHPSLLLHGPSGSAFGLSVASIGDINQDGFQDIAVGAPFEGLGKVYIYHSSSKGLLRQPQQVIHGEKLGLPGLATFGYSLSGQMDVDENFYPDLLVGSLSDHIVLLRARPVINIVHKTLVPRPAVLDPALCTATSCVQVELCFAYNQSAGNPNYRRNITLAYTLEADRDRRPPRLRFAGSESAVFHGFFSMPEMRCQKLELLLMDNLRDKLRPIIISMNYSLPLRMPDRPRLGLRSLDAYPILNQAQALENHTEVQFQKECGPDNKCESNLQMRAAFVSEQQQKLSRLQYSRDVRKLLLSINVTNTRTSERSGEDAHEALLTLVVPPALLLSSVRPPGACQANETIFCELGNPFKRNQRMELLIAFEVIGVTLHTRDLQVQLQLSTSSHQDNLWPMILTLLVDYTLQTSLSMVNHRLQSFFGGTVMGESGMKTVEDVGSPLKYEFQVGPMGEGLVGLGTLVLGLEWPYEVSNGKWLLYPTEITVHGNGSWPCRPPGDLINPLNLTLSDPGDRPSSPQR
T1 sequence (P26006 878-1051 limits assumed): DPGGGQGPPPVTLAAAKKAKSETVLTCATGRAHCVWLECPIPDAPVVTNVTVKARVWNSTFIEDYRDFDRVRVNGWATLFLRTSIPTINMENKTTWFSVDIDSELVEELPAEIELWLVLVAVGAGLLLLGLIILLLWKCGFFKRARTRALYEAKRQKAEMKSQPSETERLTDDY
T1 sequence (P05556 21-798): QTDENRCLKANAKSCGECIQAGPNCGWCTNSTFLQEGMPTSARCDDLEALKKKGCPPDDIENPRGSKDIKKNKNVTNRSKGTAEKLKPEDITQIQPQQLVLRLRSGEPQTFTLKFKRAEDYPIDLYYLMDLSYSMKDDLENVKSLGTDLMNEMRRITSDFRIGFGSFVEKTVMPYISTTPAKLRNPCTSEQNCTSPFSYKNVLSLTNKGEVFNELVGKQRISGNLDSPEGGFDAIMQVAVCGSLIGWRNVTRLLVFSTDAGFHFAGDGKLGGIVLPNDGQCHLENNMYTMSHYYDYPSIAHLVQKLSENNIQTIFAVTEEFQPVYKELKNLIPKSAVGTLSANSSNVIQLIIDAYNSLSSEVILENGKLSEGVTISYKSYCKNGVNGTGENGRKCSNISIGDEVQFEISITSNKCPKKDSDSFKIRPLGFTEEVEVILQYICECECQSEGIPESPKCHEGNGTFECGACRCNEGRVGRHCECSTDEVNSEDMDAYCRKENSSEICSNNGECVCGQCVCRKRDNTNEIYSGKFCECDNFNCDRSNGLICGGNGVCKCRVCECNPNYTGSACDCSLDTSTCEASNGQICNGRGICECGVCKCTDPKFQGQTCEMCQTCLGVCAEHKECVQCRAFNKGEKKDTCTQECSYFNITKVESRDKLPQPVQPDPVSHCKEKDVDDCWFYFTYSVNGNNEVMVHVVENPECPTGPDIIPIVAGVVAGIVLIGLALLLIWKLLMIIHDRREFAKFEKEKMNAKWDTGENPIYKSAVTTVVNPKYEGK
Assay: Binding of stapled peptides to integrin α3β1 on MDA-MB231 cells, flow cytometry with streptavidin-PerCP-Cy5.5 staining
Procedure: The obtained stapled peptides P1 a–g were tested for binding to integrin α3β1 expressed on human MDA‐MB231 cells (Figure S2). Upon incubation for 30 min with different concentrations of the stapled P1 a–g variants, streptavidin‐PerCP‐Cy5.5 was added after three washing steps to allow detection by flow cytometry. Peptide P2 (P1 in its disulfide cyclized form) served as a positive control, which bound with an apparent affinity of 100 nM.[23]
Binding of stapled peptides to murine 4T1 cells and human MDA-MB231 cells
Figure S2: Determination of Kd values for peptides P1a-h based on streptavidin-PerCP-Cy5.5 staining of integrin- containing cells incubated with different peptide concentrations. A: Peptides P1a-c in mouse 4T1 cells. B: P1a-c in human MDA-MB231 cells. C: Peptides P1d-h in human MDA-MB231 cells.
4T1 and MDA-MB231 cells were grown in culture according to the suppliers’ guidelines, and cells were detached by using trypsin/EDTA (PAN, diluted 1:2 with PBS). Resuspended cells in complete culture medium were centrifuged and washed once with washing buffer [HEPES (pH 7.3, 10 mM) in NaCl (0.9 %)] at 4°C and resuspended (2x10^6 cells mL-1) in peptide blocking buffer (PBB): HEPES (pH 7.3, 10 mM) in NaCl (0.9%) + KCl (5 mM), BSA (3%) + FCS (5 %) + MnCl2 (4 mM). Peptide samples were prepared at twice the final concentration in PBB and added to the cells to give final peptide concentrations of 1 nM - 3 µM. Cells (1x105 per 50 µL) were aliquoted into FACS tubes and incubated for 10 min on ice before addition of the peptide samples (50 µL). […]
PerCP-Cy5.5 (100 µL, Beckton Dickinson, 0.5 mg mL-1) in PBB. […] Cells were kept on ice until analysis with a FACS Canto instrument and 10000 events/sample were recorded. Data were evaluated with Flowing software. Gating was performed on single and live cells, and histograms of PerCP–Cy5.5 fluorescence were plotted. Kd values were calculated by fitting the data to a one-site specific binding model [Y=BmaxVX/(Kd+X)] by using GraphPad Prism, and errors represent the standard error of the fit.

[1] = Figure 2, integrin α3β1, flow cytometry binding, read-out: Kd

## NC(=O)C[C@@H]1NC(=O)[C@@H]2C[C@@H](O)CN2C(=O)CNC(=O)[C@H](Cc2ccc(O)c([N+](=O)[O-])c2)NC(=O)CNC(=O)[C@@H](CC(=O)O)NC(=O)[C@H](N)CSSC[C@H](C(=O)NCC(=O)NCC(=O)N[C@@H](CCCCNC(=O)CCCC(=O)NCCCOCCOCCOCCCNC(=O)CCCC[C@@H]2SC[C@@H]3NC(=O)N[C@@H]32)C(N)=O)NC1=O [Peptide P2, reference compound] (H-[dC][dD]G[Tyr(3-NO2)]G[Hyp]N[dC]GGK([Glutaryl-X1])-NH2; disulfide 1-8)
[1]
  Kd: 0.1 µM

## NC(=O)C[C@@H]1NC(=O)[C@@H]2C[C@@H](O)CN2C(=O)CNC(=O)[C@H](Cc2ccc(O)c([N+](=O)[O-])c2)NC(=O)CNC(=O)[C@@H](CC(=O)O)NC(=O)[C@H](N)CSC/C=C\CSC[C@H](C(=O)NCC(=O)NCC(=O)N[C@@H](CCCCNC(=O)CCCC(=O)NCCCOCCOCCOCCCNC(=O)CCCC[C@@H]2SC[C@@H]3NC(=O)N[C@@H]32)C(N)=O)NC1=O [P1 a] (H-[dC][dD]G[Tyr(3-NO2)]G[Hyp]N[dC]GGK([Glutaryl-X1])-NH2; linker 1-8 via X2)
[1]
  Kd: 13 µM

## NC(=O)C[C@@H]1NC(=O)[C@@H]2C[C@@H](O)CN2C(=O)CNC(=O)[C@H](Cc2ccc(O)c([N+](=O)[O-])c2)NC(=O)CNC(=O)[C@@H](CC(=O)O)NC(=O)[C@H](N)CSCC#CCSC[C@H](C(=O)NCC(=O)NCC(=O)N[C@@H](CCCCNC(=O)CCCC(=O)NCCCOCCOCCOCCCNC(=O)CCCC[C@@H]2SC[C@@H]3NC(=O)N[C@@H]32)C(N)=O)NC1=O [P1 d] (H-[dC][dD]G[Tyr(3-NO2)]G[Hyp]N[dC]GGK([Glutaryl-X1])-NH2; linker 1-8 via X3)
Integrin α3β1 expressed on human MDA-MB231 cells, 30 min incubation on ice, streptavidin-PerCP-Cy5.5, flow cytometry, one-site specific binding fit, read-out: binding affinity
  Kd: ~10 µM
